Read-outs that look alike come from different tables or passages of the source.
Key:
[1] = target: T1, CYP2B6 (Homo sapiens, UniProt P20813); test: CYP inhibition in human liver microsomes (Eurofins protocol ITEMG232); type: in vitro ADME; conditions: substrate bupropion; for CYP2B6 Inh %: 10 μM; for inhibition at 10 µM: probe bupropion, read-out: CYP2B6 Inh %
T1 construct: using isoform-specific substrates incubated with human liver microsomes; tissue Eurofins ITEMG232; host or cells: human liver microsomes
T1 sequence (P20813 1-491): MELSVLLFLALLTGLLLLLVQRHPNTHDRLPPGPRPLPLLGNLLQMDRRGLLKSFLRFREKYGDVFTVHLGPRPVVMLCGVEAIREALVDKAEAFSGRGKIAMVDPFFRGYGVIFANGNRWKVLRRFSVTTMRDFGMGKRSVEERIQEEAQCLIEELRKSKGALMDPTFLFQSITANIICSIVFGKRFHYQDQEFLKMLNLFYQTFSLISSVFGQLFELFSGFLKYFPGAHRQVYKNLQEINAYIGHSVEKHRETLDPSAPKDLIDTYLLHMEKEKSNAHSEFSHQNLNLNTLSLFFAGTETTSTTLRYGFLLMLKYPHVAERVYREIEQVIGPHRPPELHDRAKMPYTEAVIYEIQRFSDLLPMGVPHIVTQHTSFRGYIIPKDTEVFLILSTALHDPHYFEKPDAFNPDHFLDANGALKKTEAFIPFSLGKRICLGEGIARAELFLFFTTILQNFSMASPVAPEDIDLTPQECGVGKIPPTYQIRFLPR
Description: (§1) The following substrates were used; CYP1A phenacetin, CYP2B6 bupropion, CYP2C8 paclitaxel and amodiaquine, CYP2C9 diclofenac, CYP2C19 omeprazole, CYP2D6 dextromethorphan, CYP3A midazolam and testosterone.
(§2) At the end of the incubation, the formation of metabolite was monitored by HPLC-MS/MS as the peak area response.

[2] = target: T2, CYP2D6 (Homo sapiens, UniProt P10635); test: as above; type: in vitro ADME; conditions: substrate dextromethorphan; for CYP2D6 Inh %: 10 μM; for inhibition at 10 µM: probe dextromethorphan, read-out: CYP2D6 Inh %
T2 construct: tissue Eurofins ITEMG232; host or cells: human liver microsomes
Description: as §1, §2

[3] = target: T3, CYP2C8 (Homo sapiens, UniProt P10632); test: as above; type: in vitro ADME; conditions: substrates paclitaxel and amodiaquine; for CYP2C8 Inh %: 10 μM; for inhibition at 10 µM: probe paclitaxel and amodiaquine, read-out: CYP2C8 Inh %
T3 construct: using isoform-specific substrates incubated with human liver microsomes; tissue Eurofins ITEMG232; host or cells: human liver microsomes
T3 sequence (P10632 1-490): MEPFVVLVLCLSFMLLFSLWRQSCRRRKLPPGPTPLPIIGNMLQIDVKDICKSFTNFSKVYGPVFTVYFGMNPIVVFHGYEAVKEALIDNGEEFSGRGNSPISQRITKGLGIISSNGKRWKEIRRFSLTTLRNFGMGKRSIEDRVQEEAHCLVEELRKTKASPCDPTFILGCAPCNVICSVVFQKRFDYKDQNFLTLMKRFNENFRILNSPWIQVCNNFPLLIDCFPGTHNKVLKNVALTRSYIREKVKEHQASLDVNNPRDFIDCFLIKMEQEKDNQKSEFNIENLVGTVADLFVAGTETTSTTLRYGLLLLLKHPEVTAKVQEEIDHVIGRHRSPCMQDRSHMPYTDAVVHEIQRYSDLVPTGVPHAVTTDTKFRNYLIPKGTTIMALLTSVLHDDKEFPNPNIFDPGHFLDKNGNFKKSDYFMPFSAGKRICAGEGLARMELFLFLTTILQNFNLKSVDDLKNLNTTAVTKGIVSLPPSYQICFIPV
Description: as §1, §2

[4] = target: CYP2C9 (Homo sapiens, UniProt P11712); test: as above; type: in vitro ADME; parameters: using isoform-specific substrates incubated with human liver microsomes; tissue Eurofins ITEMG232; host or cells: human liver microsomes; conditions: substrate diclofenac; for CYP2C9 Inh %: 10 μM; for inhibition at 10 µM: probe diclofenac, read-out: CYP2C9 Inh %
Description: as §1, §2

[5] = target: T4, human recombinant AT2 receptor (Homo sapiens, UniProt P50052); test: Binding to AT2 receptor, radiometric scintillation assay (Eurofins protocol ITEM26 and ITEM24); conditions: read-out: AT2 IC50, ligand 125I CGP 42112A, 1, 10, 100 and 1000 nM, 2-4 h at 37° C.
T4 sequence (P50052 1-363): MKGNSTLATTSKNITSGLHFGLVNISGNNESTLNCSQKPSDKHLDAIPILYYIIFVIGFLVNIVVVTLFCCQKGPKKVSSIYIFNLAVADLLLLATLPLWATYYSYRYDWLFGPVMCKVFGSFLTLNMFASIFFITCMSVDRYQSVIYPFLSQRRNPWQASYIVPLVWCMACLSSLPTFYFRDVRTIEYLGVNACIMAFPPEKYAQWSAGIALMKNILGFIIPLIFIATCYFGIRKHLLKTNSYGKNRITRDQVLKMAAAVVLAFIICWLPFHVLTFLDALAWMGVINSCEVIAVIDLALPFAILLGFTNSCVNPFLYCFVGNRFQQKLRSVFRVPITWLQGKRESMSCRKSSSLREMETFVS
Description: Compounds were evaluated for binding to the human recombinant AT2 and AT1 receptor according to Eurofins protocol ITEM26 and ITEM24 using a radiometric scintillation assay.

[6] = Metabolic stability in pooled human liver microsomes with or without NADPH; type: in vitro ADME; conditions: pooled human liver microsomes 0.5 mg/mL in PBS, 1 uM test compound, 37° C.; for half-life at 1 uM: human, pooled human liver microsomes
Description: Pooled human liver microsomes in PBS at a concentration of 0.5 mg/mL was incubated with or without 1 mM NADPH for 70 min at 37° C. Test compound was added after 10 minutes to a final concentration of 1 uM. Samples were withdrawn at 0, 5, 15 and 60 minutes and added to test tubes containing acetonitrile, to stop the reaction, and with terfenadine, used as internal standard. After centrifugation at 10000×g for 5 minutes the supernatant was diluted 1:1 with 1% formic acid. Samples were separated on a reverse phase column and detected by triple quadrupole MSMS (Agilant model 6540). The concentration of the parent compound at the different time points was measured with an external standard curve using terfenadine as internal standard and the initial metabolic rate in the presence or absence of NADPH calculated.

[7] = tested on: CYP3A4&5; test: CYP inhibition in human liver microsomes (Eurofins protocol ITEMG232), testosterone substrate; type: in vitro ADME; conditions: for CYP3A4&5 testosterone Inh %: 10 μM; for inhibition at 10 µM: probe testosterone, read-out: CYP3A4&5 testosterone Inh %
Description: as §1, §2

[8] = target: CYP3A4 (Homo sapiens, UniProt P08684); test: CYP inhibition in human liver microsomes (Eurofins protocol ITEMG232), midazolam substrate; type: in vitro ADME; parameters: using isoform-specific substrates incubated with human liver microsomes; tissue Eurofins ITEMG232; host or cells: human liver microsomes; conditions: for CYP3A4 midazolam Inh %: 10 μM; for inhibition at 10 µM: probe midazolam, read-out: CYP3A4 midazolam Inh %
Description: as §1, §2

[9] = with 1 mM NADPH, read-out: T1/2, +NaDPH
[10] = without NADPH, read-out: T1/2, no NaDPH

Sequence of CYP2C9 (P11712 whole entry, canonical isoform): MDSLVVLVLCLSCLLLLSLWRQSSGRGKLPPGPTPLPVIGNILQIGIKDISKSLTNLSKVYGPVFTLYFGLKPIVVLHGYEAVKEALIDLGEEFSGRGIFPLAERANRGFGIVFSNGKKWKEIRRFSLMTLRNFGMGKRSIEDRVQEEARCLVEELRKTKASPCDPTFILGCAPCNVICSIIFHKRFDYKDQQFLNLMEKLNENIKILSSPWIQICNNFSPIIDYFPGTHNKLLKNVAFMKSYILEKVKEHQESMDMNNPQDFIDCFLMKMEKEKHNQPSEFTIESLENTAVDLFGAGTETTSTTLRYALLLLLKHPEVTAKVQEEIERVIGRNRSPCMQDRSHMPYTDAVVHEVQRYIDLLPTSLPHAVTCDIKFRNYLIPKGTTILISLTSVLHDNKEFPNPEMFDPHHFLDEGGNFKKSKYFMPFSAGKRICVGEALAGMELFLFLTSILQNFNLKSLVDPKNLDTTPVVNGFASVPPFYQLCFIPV
Sequence of CYP3A4 (P08684 whole entry, canonical isoform): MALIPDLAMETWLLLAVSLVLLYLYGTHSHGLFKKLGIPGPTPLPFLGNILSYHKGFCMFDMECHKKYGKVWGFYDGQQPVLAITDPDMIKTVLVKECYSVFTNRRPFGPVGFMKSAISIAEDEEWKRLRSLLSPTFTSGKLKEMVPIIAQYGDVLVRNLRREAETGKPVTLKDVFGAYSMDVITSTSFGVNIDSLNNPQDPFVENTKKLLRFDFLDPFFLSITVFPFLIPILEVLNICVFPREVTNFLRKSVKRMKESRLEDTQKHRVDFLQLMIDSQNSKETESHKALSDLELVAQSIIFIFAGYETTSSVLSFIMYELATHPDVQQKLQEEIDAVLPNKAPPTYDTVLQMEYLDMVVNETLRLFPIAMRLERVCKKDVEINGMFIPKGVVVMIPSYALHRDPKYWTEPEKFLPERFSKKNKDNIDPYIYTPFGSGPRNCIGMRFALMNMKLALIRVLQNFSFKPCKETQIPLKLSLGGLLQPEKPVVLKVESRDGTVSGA
T2 sequence (P10635 whole entry): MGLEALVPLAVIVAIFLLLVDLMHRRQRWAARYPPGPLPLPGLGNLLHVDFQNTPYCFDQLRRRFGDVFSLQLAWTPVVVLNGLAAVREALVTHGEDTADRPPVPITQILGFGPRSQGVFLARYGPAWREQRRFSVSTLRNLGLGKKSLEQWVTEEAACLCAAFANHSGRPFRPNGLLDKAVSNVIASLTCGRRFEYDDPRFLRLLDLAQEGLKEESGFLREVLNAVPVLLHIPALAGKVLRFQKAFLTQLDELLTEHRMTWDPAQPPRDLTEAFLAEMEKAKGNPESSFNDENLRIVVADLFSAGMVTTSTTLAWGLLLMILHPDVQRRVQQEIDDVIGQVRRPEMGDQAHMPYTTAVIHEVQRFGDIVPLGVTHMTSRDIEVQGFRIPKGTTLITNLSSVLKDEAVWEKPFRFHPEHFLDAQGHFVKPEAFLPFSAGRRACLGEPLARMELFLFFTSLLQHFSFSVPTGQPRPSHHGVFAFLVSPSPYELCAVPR

Row | inhibition at 10 µM [1] | inhibition at 10 µM [2] | inhibition at 10 µM [3] | inhibition at 10 µM [4] | half-life at 1 uM [6, 9] | half-life at 1 uM [6, 10] | inhibition at 10 µM [7] | inhibition at 10 µM [8] | SMILES | CYP2B6 Inh % [1] | CYP2D6 Inh % [2] | CYP2C8 Inh % [3] | CYP2C9 Inh % [4] | IC50 [5] | T1/2, +NaDPH ([6]; with 1 mM NADPH) | T1/2, no NaDPH ([6]; without NADPH) | CYP3A4&5 testosterone Inh % [7] | CYP3A4 midazolam Inh % [8]
1 |  |  |  |  |  |  |  |  | CCOC(=O)NS(=O)(=O)c1sc(CC(C)C)cc1-c1ccc(Cn2ccnc2C)c(F)c1.O=C(O)C(F)(F)F [Example 1, Ethyl (3-(3-fluoro-4-((2-methyl-1H-imidazol-1-yl)methyl)phenyl)-5-isobutylthiophen-2-yl)sulfonvicarbamate trifluoroacetic acid] | 39% | 45% | 37% | 64% | 2.4 nM | 50 min | 60 min | −2% | −42%
2 |  |  |  |  |  |  |  |  | COCCOC(=O)NS(=O)(=O)c1sc(CC(C)C)cc1-c1ccc(Cn2ccnc2C)c(F)c1.O=C(O)C(F)(F)F [Example 3] | 36% | 44% | 26% | 58% | 3.5 nM | >60 min | >60 min | −20% | −52%
3 |  |  |  |  |  |  |  |  | CCc1nccn1Cc1ccc(-c2cc(CC(C)C)sc2S(=O)(=O)NC(=O)OCc2ccc(F)cc2)cc1F.O=C(O)C(F)(F)F [Example 6, 4-Fluorobenzyl (3-(4((2-ethyl-1H-imidazol-1-yl)methyl)-3-fluorophenyl)-5-isobutylthio-phen-2-yl)sulfonylcarbamate trifluoroacetic acid] | 30% | 50% | 55% | 72% | 1.8 nM | 7 min | 50 min | 13% | −39%
4 |  |  |  |  |  |  |  |  | CCOC(=O)NS(=O)(=O)c1sc(CC(C)C)cc1-c1ccc(Cn2ccnc2CC)c(F)c1.O=C(O)C(F)(F)F [Example 7, Ethyl (3-(4-((2-ethyl-1H-imidazol-1-yl)methyl)-3-fluorophenyl)-5-isobutylthiophen-2-30 yl)sulfonylcarbamate trifluoroacetic acid] | 26% | 39% | 66% | 64% | 1.8 nM | 40 min | 40 min | 18% | −31%
5 |  |  |  |  |  |  |  |  | CCOC(=O)NS(=O)(=O)c1sc(CC(C)C)cc1-c1ccc(Cn2ccnc2C(C)C)c(F)c1.O=C(O)C(F)(F)F [Example 8, Ethyl (3-(3-fluoro-4-((2-isopropyl-1H-imidazol-1-yl)methyl)phenyl)-5-isobutylthio-phen-2-yl)sulfonylcarbamate trifluoroacetic acid] | 36% | 44% | 26% | 58% | 3.5 nM | 46 min | 53 min | −20% | −52%
6 |  |  |  |  |  |  |  |  | Cc1nccn1Cc1c(F)cc(-c2cc(CC(C)C)sc2S(=O)(=O)NC(=O)OCCO)cc1F [Example 18, 2-Hydroxyethyl (3-(3,5-difluoro-4-((2-methyl-1H-imidazol-1-yl)methyl)phenv1)-5-isobutylthiophen-2-yl)sulfonylcarbamate] | 33.3% | 48.8% | 56.1% | 77.0% | 0.87 nM | 4 min | >60 min | 1.7% | −35.6%
7 | 26.9% | 31.3% | 83.2% | 62.3% | 1 min | 12 min | 20.7% | 43.4% | Cc1nccn1Cc1ccc(-c2cc(CC(C)C)sc2S(=O)(=O)NC(=O)OCCOC(=O)C(C)(C)C)cc1F [Example 19, 2-((((3-(3-Fluoro-4-((2-methyl-1H-imidazol-1-yl)methyl)phenyl)-5-isobutylthiophen-2-yl)sulfonyl)carbamoyl)oxy)ethyl pivalate] |  |  |  |  |  |  |  |  | 
8 | 25% | 20.1% | 65.7% | 58.4% | 4 min | 4 min | 27.4% | 7.3% | CC(C)Cc1cc(-c2ccc(Cn3ccnc3C(C)(C)C)c(F)c2)c(S(=O)(=O)NC(=O)c2ccccn2)s1 [Example 27, N-((3-(4-((2-(Tert-Butyl)-1H-imidazol-1-yl)methyl)-3-fluorophenyl)-5-isobutylthio-phen-2-yl)sulfonyl)picolinamide] |  |  |  |  |  |  |  |  | 
